The values below come from PMC5607165, “Synthesis of UDP-apiose in Bacteria: The marine phototroph Geminicoccus roseus and the plant pathogen Xanthomonas pisi” (PLoS ONE, 2017).

One data set concerns the target GrUAS (Geminicoccus roseus, UniProt A0A291B0F6). Nature of the data set: HPLC, UDP-GlcA consumption with additive. As to conditions: 1 mM UDP-GlcA, 1 mM NAD+, 50 mM Tris-HCl pH 7.9, 37 °C; additive concentration not given; residual activity versus water. Format: biochemical. The source says:
HPLC, UDP-GlcA consumption with additive on GrUAS

Data set [1] deals with Geminicoccus roseus UDP-apiose/UDP-xylose synthase (GrUAS), recombinant His6-tagged (Geminicoccus roseus). Kind of data set: SEC; Superdex75 gel filtration of purified recombinant GrUAS; mass estimated from the elution times of standard protein markers; activity of the fractions determined by HPLC; method as previously described [31].
The target of another data set is T1, CeUAS (Candidatus Entotheonella factor, UniProt W4LSK8).
T1 construct: gene ETSY1_09345
T1 sequence (W4LSK8 entry or part of it): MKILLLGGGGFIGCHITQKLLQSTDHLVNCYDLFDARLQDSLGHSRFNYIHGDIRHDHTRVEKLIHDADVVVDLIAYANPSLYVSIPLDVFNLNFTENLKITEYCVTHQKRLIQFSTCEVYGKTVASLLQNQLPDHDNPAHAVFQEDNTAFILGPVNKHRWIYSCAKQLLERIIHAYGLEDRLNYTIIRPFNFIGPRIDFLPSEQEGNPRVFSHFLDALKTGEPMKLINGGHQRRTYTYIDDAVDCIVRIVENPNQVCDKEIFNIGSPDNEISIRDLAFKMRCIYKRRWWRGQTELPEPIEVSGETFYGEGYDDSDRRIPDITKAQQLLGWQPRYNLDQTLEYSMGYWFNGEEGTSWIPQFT
Nature of the data set: HILIC-ESI-MS/MS and 1H NMR of products. Type of data set: biochemical. The following applies: 1 mM NAD+, 1 mM UDP-GlcA, 50 mM Tris-HCl pH 7.9, 37 °C; products UDP-apiose and UDP-xylose.

For a further data set, the target named is T2, XpUAS (Xanthomonas pisi, UniProt A0A291B0F1).
T2 construct: gene XpiCFBP4643_06440
T2 sequence (A0A291B0F1 1-375): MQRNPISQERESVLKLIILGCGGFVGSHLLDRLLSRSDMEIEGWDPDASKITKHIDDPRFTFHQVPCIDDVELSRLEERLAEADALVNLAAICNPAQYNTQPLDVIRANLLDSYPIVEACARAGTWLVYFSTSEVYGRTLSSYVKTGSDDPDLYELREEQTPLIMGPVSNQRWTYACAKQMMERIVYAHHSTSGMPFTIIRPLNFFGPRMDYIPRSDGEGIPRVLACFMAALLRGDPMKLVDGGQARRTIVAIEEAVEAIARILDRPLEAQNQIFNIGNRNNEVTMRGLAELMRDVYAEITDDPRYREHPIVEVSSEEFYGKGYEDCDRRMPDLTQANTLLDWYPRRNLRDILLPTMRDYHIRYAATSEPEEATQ
Nature of the data set: HILIC-ESI-MS/MS and 1H NMR of products. The following applies: 1 mM NAD+, 1 mM UDP-GlcA, 50 mM Tris-HCl pH 7.9, 37 °C; products UDP-apiose and UDP-xylose. Type of data set: biochemical.

Substrate in data set [2]: O=C(O)[C@H]1O[C@H](OP(=O)(O)OP(=O)(O)OC[C@H]2O[C@@H](n3ccc(=O)[nH]c3=O)[C@H](O)[C@@H]2O)[C@H](O)[C@@H](O)[C@@H]1O
Kind of data set: HPLC anion exchange, UDP-GlcA depletion. Format: biochemical, Geminicoccus roseus. As to conditions: 1 mM NAD+, 50 mM Tris-HCl pH 7.9, 37 °C, 7 min. The source says: HPLC anion exchange, UDP-GlcA depletion on GrUAS

In the case of `Nc1ccn([C@@H]2O[C@H](COP(=O)(O)O)[C@@H](O)[C@H]2O)c(=O)n1` [CMP], the “Relative activity (%)^a” value at GrUAS is reported as 93.8 ± 4.5%.
Still for that read-out and setting: under `Nc1nc2c(ncn2[C@@H]2O[C@H](COP(=O)(O)O)[C@@H](O)[C@H]2O)c(=O)[nH]1` [GMP] stands 94.3 ± 3.7%.
On the same count and under the same terms, the same measure for `O=c1ccn([C@@H]2O[C@H](COP(=O)(O)OP(=O)(O)O[C@H]3OC[C@@H](O)[C@H](O)[C@H]3O)[C@@H](O)[C@H]2O)c(=O)[nH]1` [UDP-xylose]: 91.4 ± 5.6%; for `Cc1cn([C@H]2C[C@H](O)[C@@H](COP(=O)(O)O)O2)c(=O)[nH]c1=O` [TMP]: 87.9 ± 4.9%.
Usually stoichiometry N stands for a count of units in the complex or per binding partner. Turning to “Geminicoccus roseus UDP-apiose/UDP-xylose synthase (GrUAS), recombinant His6-tagged (enzyme)”, the stoichiometry N in data set [1] is 2.
With `Nc1nc2c(ncn2[C@@H]2O[C@H](COP(=O)(O)OP(=O)(O)O)[C@@H](O)[C@H]2O)c(=O)[nH]1` [GDP], on GrUAS, the “Relative activity (%)^a” value is recorded as 85.2 ± 7.9%.
On to `O=c1ccn([C@@H]2O[C@H](COP(=O)(O)OP(=O)(O)O[C@H]3OC[C@H](O)[C@H](O)[C@H]3O)[C@@H](O)[C@H]2O)c(=O)[nH]1` [UDP-arabinose], for which the “Relative activity (%)^a” value at GrUAS was 88.5 ± 5.6%.
Take `O=C(O)[C@H]1O[C@H](OP(=O)(O)OP(=O)(O)OC[C@H]2O[C@@H](n3ccc(=O)[nH]c3=O)[C@H](O)[C@@H]2O)[C@H](O)[C@@H](O)[C@@H]1O` [UDP-GlcA]: the “HILIC-ESI-MS/MS and 1H NMR of products” value at CeUAS and at XpUAS was “Each purified UAS was shown by HILIC-ESI-MS/MS to convert UDP-GlcA to two UDP-pentose products” throughout.
On to `O=c1ccn([C@@H]2O[C@H](COP(=O)(O)OP(=O)(O)O)[C@@H](O)[C@H]2O)c(=O)[nH]1` [UDP], for which the “Relative activity (%)^a” value on GrUAS stood at 72.6 ± 5.5%.
The same measure, in the same setting: under `O=c1ccn([C@@H]2O[C@H](COP(=O)(O)O)[C@@H](O)[C@H]2O)c(=O)[nH]1` [UMP] stands 92.6 ± 5.0%; under `NC(=O)C1=CN([C@@H]2O[C@H](COP(=O)(O)OP(=O)(O)OC[C@H]3O[C@@H](n4cnc5c(N)ncnc54)[C@H](OP(=O)(O)O)[C@@H]3O)[C@@H](O)[C@H]2O)C=CC1` [NADPH], 82.6 ± 0.9%; under `NC(=O)C1=CN([C@@H]2O[C@H](COP(=O)(O)OP(=O)(O)OC[C@H]3O[C@@H](n4cnc5c(N)ncnc54)[C@H](O)[C@@H]3O)[C@@H](O)[C@H]2O)C=CC1` [NADH], 105.3 ± 1.9%.
On the same count and under the same terms, under `NC(=O)c1ccc[n+]([C@@H]2O[C@H](COP(=O)(O)OP(=O)(O)OC[C@H]3O[C@@H](n4cnc5c(N)ncnc54)[C@H](OP(=O)(O)O)[C@@H]3O)[C@@H](O)[C@H]2O)c1` [NADP] stands 79.6 ± 3.3%; under `Nc1ccn([C@@H]2O[C@H](COP(=O)(O)OP(=O)(O)O)[C@@H](O)[C@H]2O)c(=O)n1` [CDP], 85.3 ± 4.6%; under `O=C(O)[C@H]1O[C@H](OP(=O)(O)OP(=O)(O)OC[C@H]2O[C@@H](n3ccc(=O)[nH]c3=O)[C@H](O)[C@@H]2O)[C@H](O)[C@@H](O)[C@H]1O` [UDP-galacturonic acid], 33.4 ± 9.5%.
Same read-out and setting: under `Cc1cn([C@H]2C[C@H](O)[C@@H](COP(=O)(O)OP(=O)(O)O)O2)c(=O)[nH]c1=O` [TDP] stands 85.0 ± 4.8%.

B1: GrUAS (Geminicoccus roseus) (protein)
chain: MRVVILGCGGFVGSHLLDNLLRDESYLIEGWDPEDRKIRQHLDNPRFTLHRSIANAPEALVEVERAIRECDVVVNLAAICNPADYNTRPLSVIRANLFEVYPIVELCAKYKRWLVSFSTSETYGRTIASYLPAGTYDDPELYELREDETPLIMGPIRNQRWTYACAKQMTERLIYAHHDEEGLPFTIIRPLNFFGPRMDYIPTRDGDGVPRVLACFMAALLSGEPMQLVDGGQARRTIVSIYEAVDAIRRVLERPETSQNQIFNIGNPNNEVTIAELADAMRRTYARITGDARYNDHPIVVTTADAFYGAGYEDCDRRMPDISKAERLLGWVPRMSLAEVLYGTMQSYHDTYTAPKAA
Broadly, the Km is the concentration of substrate that gives half-maximal velocity. The Vmax is the rate approached at saturating substrate. As to B1, in data set [2], the Km came out at 251 ± 44.6 µM and the Vmax turned out to be 4.22 µM/min.
